According to article PMC7555349, “1,4-Disubstituted-1,2,3-Triazole Compounds Induce Ultrastructural Alterations in Leishmania amazonensis Promastigote: An in Vitro Antileishmanial and in Silico Pharmacokinetic Study” (International Journal of Molecular Sciences, 2020):
Where two headings read alike, the source gives them in different places. Each block holds one molecule with its values, some of them ahead of it.

Assays:
[1] = tested on: Leishmania amazonensis promastigote; assay: Activity against promastigote forms (MTT); type: cell-based; conditions: for IC50: read-out: IC50 Promastigote
Description: Leishmania amazonensis (MHOM/BR/76/MA-76) promastigote forms of were cultured at 26 °C in Schneider’s Insect medium added with 10% fetal bovine sera (FBS), 100 U/mL of penicillin and 100 µg/mL of streptomycin. Parasite cultures with a maximum of seven in vitro passages were used. […] Blanks composed by wells without parasites and wells with parasites plus DMSO 1% only were used as controls. A modified colorimetric method with tetrazolium-dye MTT was used to evaluate parasite viability. A quantity of 10 µL of MTT (5 mg/mL) was added to each well. After five hours, 150 µL of DMSO was added to each well to dissolve the formazan crystals. Absorbance was read on a spectrophotometer at a wavelength of 570 nm. The data was normalized and the results were used to calculate the IC50 (50% inhibition of parasite growth). Miltefosine was used as a reference drug.

Cytotoxicity assay (MTT) = type: cell-based, BALB/c mice; conditions: mouse
Description: The peritoneal macrophages were obtained from BALB/c mice elicited with 3 mL Brewer thioglycollate medium for 72 h, intraperitoneal. After euthanasia, cells were obtained by peritoneal washing with PBS, centrifuged at 4000 rpm for 5 min, and suspended in RPMI 1640 medium plus 10% FBS, 100 U/mL of penicillin and 100 µg/mL of streptomycin [50]. The cells were immediately used in experiments and maintained at 37 °C and 5% CO2.
Blanks were composed by wells without cells and wells with cells plus 1% of DMSO only. Cell viability was carried out by the modified MTT colorimetric method as described before. Tem microliters of MTT at 5 mg/mL was added to each well and incubated for two hours at 37 °C and 5% CO2. The plate was then centrifuged for five minutes at 1500 rpm, the supernatants were removed and the formazan crystals solubilized with 100 μL of DMSO in a shaker-plate for 10 min. The absorbance was determined in a spectrophotometer at a wavelength of 570 nm.

[2] = tested on: Leishmania amazonensis intracellular amastigotes; assay: Activity against intracellular amastigote in infected peritoneal macrophages, and selectivity index; type: cell-based; conditions: for amastigotes per infected cell / number of amastigotes per 200 cells / parameters of infection (amastigotes per 200 cells, percentage of infected cells, amastigotes per infected cell): compared with untreated infected cells; for IC50: Leishmania amazonensis, Peritoneal macrophage, in Mus musculus, read-out: IC50 Intracellular Amastigote; for SI (selectivity index): ratio of CC50 versus the IC50 for intracellular amastigotes
Description: Activity against the intracellular amastigotes was carried out in 24-well plates with coverslips with peritoneal macrophages (5 × 10^5 cells/well). Cells were infected with L. amazonensis promastigote forms using a ratio of 10:1 parasite/cell. After 6 h after infection the cells were washed three times with PBS to remove non-internalized parasites. […] The infected and treated cells adhered to the coverslips were fixed with Bouin, stained with Giemsa’s azur-eosin-methylene blue and examined by light microscopy. […] The percentage of infected cells was determined by number of infected cells divided by two. […] The selectivity index was calculated from the ratio of CC50 versus the IC50 for intracellular amastigotes.

[3] = tested on: Leishmania amazonensis promastigotes; assay: Transmission electron microscopy of treated promastigotes; type: cell-based; conditions: 24 h of treatment at IC50
Description: The parasites were fixed with 2.5% glutaraldehyde in a 0.1 M sodium-cacodylate buffer, pH 7.2 overnight. Then, parasites were washed three times with 0.1 M sodium-cacodylate buffer, post-fixed in a solution composed by 1% osmium tetroxide, 0.8% potassium ferrocyanide, and 5 mM calcium chloride, dehydrated in graded acetone and embedded in EPON 812.

[4] = tested on: BALB/c peritoneal macrophages; assay: Nitrite quantification (Griess) in supernatant of macrophages stimulated with L. amazonensis; type: cell-based, BALB/c mice; conditions: compound at 18.7 μM, 48 h
Description: BALB/c peritoneal macrophages at 5 × 10^6 cells/mL were stimulated with L. amazonensis promastigotes (10:1 parasites:cell) for one hour, and treated with different concentrations of triazole compounds for 48 h. Nitrite quantification of the supernatant of the cells was performed with Griess reagent. […] The nitrite concentrations were obtained from the standard curve of sodium nitrite (100 to 0.3 μM).

[5] = L. amazonensis promastigotes, 24 h of treatment per table title, MTT
[6] = Leishmania amazonensis, 24 h, L. amazonensis promastigotes, 24 h of treatment per table title, MTT
[7] = BALB/c peritoneal macrophages, 24 h of treatment, MTT, read-out: CC50
[8] = L. amazonensis in BALB/c peritoneal macrophages, 24 h of treatment

SMILES: O=Cc1ccccc1-n1cc(COc2ccccc2)nn1 [Compound 1]
IC50 [1, 5]: 53.7 ± 8.47 µM
IC50 [1, 6]: > 50 µM
CC50 at 24 h (Cytotoxicity assay (MTT); [7]): 221 ± 4.82 µM

SMILES: O=Cc1ccccc1-n1cc(COc2cccc(OCc3cn(-c4ccccc4C=O)nn3)c2)nn1 [Compound 2]
IC50 [1, 5]: 8.85 ± 3.44 µM
IC50 [1, 6]: < 10 µM
amastigotes per infected cell ([2]; 37.5 μM, 24 h): decreased
number of amastigotes per 200 cells ([2]; 37.5 μM, 24 h): decreased
IC50 [2, 8]: 37.9 ± 3.35 µM
SI (selectivity index) [2]: 6.55
ultrastructural alterations in promastigotes [3]: increase in lipid corpuscles (white arrows), electron dense vesicles inside small vacuoles in the cytoplasm
CC50 at 24 h (Cytotoxicity assay (MTT); [7]): 248 ± 2.52 µM

SMILES: C#CCOc1cccc(OCc2cn(-c3ccccc3C=O)nn2)c1 [Compound 4]
IC50 [1, 5]: 15.7 ± 5.42 µM
IC50 [1, 6]: ~15 µM
increase in IC50 value against intracellular amastigote compared to promastigote forms [2]: 9.5 fold
number of amastigotes per 200 cells ([2]; 37.5 μM, 24 h): statistically decreased
parameters of infection (amastigotes per 200 cells, percentage of infected cells, amastigotes per infected cell) ([2]; 37.5 μM, 24 h): did not significantly alter the other parameters of infection
IC50 [2, 8]: 150 ± 6.37 µM
SI (selectivity index) [2]: 0.96
ultrastructural alterations in promastigotes [3]: swelling of the kinetoplast and a change in chromatin distribution
CC50 at 24 h (Cytotoxicity assay (MTT); [7]): 145 ± 4.1 µM

SMILES: Cc1ccc(S(=O)(=O)N/N=C/c2ccccc2-n2cc(COc3ccccc3)nn2)cc1 [Compound 5]
IC50 [1, 5]: 8.81 ± 3.93 µM
IC50 [1, 6]: < 10 µM
parameters of infection (amastigotes per 200 cells, percentage of infected cells, amastigotes per infected cell) ([2]; 37.5 μM, 24 h): reduced all the three parameters of infection
IC50 [2, 8]: 32.3 ± 2.26 µM
SI (selectivity index) [2]: 1.79
ultrastructural alterations in promastigotes [3]: lipid corpuscles (white arrows) (Figure 6A), extension of the kinetoplast containing granular material
CC50 at 24 h (Cytotoxicity assay (MTT); [7]): 58 ± 2.65 µM

SMILES: C(=N\Nc1ccccc1)/c1ccccc1-n1cc(COc2ccccc2)nn1 [Compound 6]
IC50 [1, 5]: 14.6 ± 4.39 µM
IC50 [1, 6]: ~15 µM
nitrite level relative to untreated infected macrophages [4]: 2.3 fold
amastigotes per infected cell ([2]; 18.7 μM, 24 h): still able to reduce
number of amastigotes per 200 cells ([2]; 18.7 μM, 24 h): still able to reduce
number of amastigotes per 200 cells ([2]; 37.5 μM, 24 h): remarkable reduction
parameters of infection (amastigotes per 200 cells, percentage of infected cells, amastigotes per infected cell) ([2]; 37.5 μM, 24 h): altered all the three parameters of infection
IC50 [2, 8]: 17.8 ± 3.26 µM
SI (selectivity index) [2]: 30.81
ultrastructural alterations in promastigotes [3]: lipid corpuscles (white arrows) (Figure 7A), large vacuoles containing electron-dense material
CC50 at 24 h (Cytotoxicity assay (MTT); [7]): 547.9 ± 3.26 µM

SMILES: CCCCCCCCCCCCCCCCOP(=O)([O-])OCC[N+](C)(C)C [Miltefosine, miltefosine, reference compound]
IC50 ([1]; Leishmania amazonensis, 24 h): 8.56 ± 0.695 µM
parameters of infection (amastigotes per 200 cells, percentage of infected cells, amastigotes per infected cell) ([2]; 25 and 12.5 μM, 24 h): reduction of all three parameters of infection
IC50 ([2]; 24 h): 11.6 ± 1.79 µM
CC50 at 24 h (Cytotoxicity assay (MTT); BALB/c): 153 ± 3.85 µM

Second part, led by results:

IC50 [1, 5]: 50.9 ± 4.57 µM
IC50 [1, 6]: > 50 µM
SMILES: O=Cc1ccccc1-n1cc(COc2cccc(O)c2)nn1 [Compound 3]
CC50 at 24 h (Cytotoxicity assay (MTT); [7]): 308 ± 4.07 µM

IC50 [1, 5]: 63 ± 5.88 µM
IC50 [1, 6]: > 50 µM
SMILES: O=Cc1ccccc1-n1cc(-c2ccccc2)nn1 [Compound 7]
CC50 at 24 h (Cytotoxicity assay (MTT); [7]): 412 ± 4.92 µM

IC50 [1, 6]: > 300 µM
SMILES: OCc1ccccc1-n1cc(COc2ccccc2)nn1 [Compound 8]
IC50 Promastigote [1, 5]: did not exhibit any such activity even at the maximum analyzed concentration
CC50 at 24 h (Cytotoxicity assay (MTT); [7]): > 600 µM

IC50 [1, 6]: > 300 µM
SMILES: O=c1ccc2cc(-n3cc(COc4ccccc4)nn3)ccc2o1 [Compound 10]
IC50 Promastigote [1, 5]: did not exhibit any such activity even at the maximum analyzed concentration
CC50 at 24 h (Cytotoxicity assay (MTT); [7]): > 600 µM
